Results published in patent US20250082720A1, “NEW PEPTIDE AND USES THEREOF” (Neo Cremar Co., Ltd., priority 2021, published 2025).

Legend:
C2C12 cells [1] = test: C2C12 myoblast proliferation (MTT method); format: cell-based, mouse; conditions: C2C12, peptide 1000 nM, 1 day, MTT, FIG. 4
Method: C2C12 cells, a mouse myoblast line, were cultured in Dulbecco's Modified Eagle's Medium (DMEM)+10% fetal bovine serum (FBS)+1% penicillin/streptomycin (P/S). To validate the effect of MIF peptide, C2C12 cells (2×10^3 cells/ml) were placed in a 12 well cell culture dish and attached for 24 hours, and MIF2 or Ac-MIF2-NH2 peptide (1000 nM) was treated for 1 day to observe cell proliferation by MTT method. The medium was replaced every 2 days, and the cells were cultured at 37° C.
To validate cell proliferation, the culture medium of the cells was removed, the cells were washed with DMEM, 500 μl of MTT reagent (0.5 mg/ml) dissolved in phosphate buffered saline (PBS) was added to each well, and the cells were left at 37° C. for 1 hour. The reaction solution was removed, and 1000 μl of DMSO was added to each well. Purple formazan crystals were completely dissolved in DMSO, and the absorbance was measured at 540 nm.

C2C12 cells [2] = test: Myodifferentiation: root canal formation and fusion index (Giemsa staining); format: cell-based, mouse; conditions: 3 days
Method: When C2C12 cells were 70% grown, media were replaced with myodifferentiation medium added with MSTN protein (1 ng), Ac-MIF2-NH2 (1000 nM), and Ac-MIF2-NH2 (1000 nM)+MSTN protein (1 ng) from proliferation medium, followed by culture for 3 days.
When the cells grew more than 70% for differentiation of myoblasts into myocytes, they were cultured for 3 days by replacing with a differentiation medium (DMEM+2% FBS+1% P/S). The medium was replaced once daily, and the cells were cultured at 37° C.
The cell medium was removed, and the cells were washed with PBS. After washing, a methanol: PBS reagent in a 1:1 volume ratio was treated, followed by fixation for 2 minutes. Additionally, after a methanol: PBS reagent in a 2:1 volume ratio was added, fixation was followed for additional 2 minutes. After 2 minutes, 0.04% Giemsa reagent was added, and then the cells were left for 30 minutes, washed with PBS after 30 minutes, and observed under a microscope, with 3 photographs taken for each cell (300×). In the photographs taken, the number of fused nuclei in the root canal cells was counted, the number of nuclei of total cells was counted, and the number of fused nuclei was divided by the number of nuclei of the total cells to obtain the % value.

Substance: Ac-VDFEAGDWFW-NH2 [Ac-MIF2-NH2, MIF2 peptide with acetylated N-terminus and amidated C-terminus]
- increase in cell proliferation compared to cells without peptide treatment (C2C12 cells [1]): 33%
- increase in fusion index compared to untreated cells (C2C12 cells [2]; C2C12, differentiation medium with peptide): 14%
- root canal formation compared to untreated cells (C2C12 cells [2]; C2C12, differentiation medium): increased
- fusion index compared to untreated cells (C2C12 cells [2]; C2C12, myodifferentiation medium, FIG. 9): increased
